Assay results reported in ChEMBL document CHEMBL3797023, “Irregularities in enzyme assays: The case of macrophage migration inhibitory factor” (Bioorg Med Chem Lett, 2016).
≈ marks a conversion by molar mass, not a printed value.

Experiment: Aqueous solubility of compound at pH 6.5 by shake-flask method
Assay type: physicochemical
Conditions: aqueous medium

Row | SMILES | solubility thermodynamic [µg/mL]
1 | Oc1ccc(-n2cc(-c3ccc4cc(OCCOCCN5CCOCC5)ccc4n3)nn2)cc1 | 48.5 (≈ 105 µM)
2 | Cc1ccc2oc(=O)n(Cc3cccc(O)c3)c2c1 | 21.9 (≈ 85.8 µM)
3 | COc1ccc(C(=O)O)cc1NC(=S)NC(=O)c1cc2ccccc2o1 | < 5
4 | Oc1cc2c(cc1C(c1ccc(C(F)(F)F)cc1)N1CCOCC1)OCO2 (configuration not stated) | 27.6 (≈ 72.4 µM)
5 | COCCOc1ccc2nc(-c3cn(-c4ccc(O)cc4)nn3)ccc2c1 | 3.6 (≈ 9.93 µM)
6 | O=C(O)c1cccc(NC(=S)NC(=O)c2ccc(-c3ccccc3)cc2)c1 | < 1
7 | COc1cc(-c2nc3ccccc3s2)cc(Br)c1OCC(=O)O | 6 (≈ 15.2 µM)
